Measured values reported in US10149907B2, “Combinations of a photosensitizer with a hydrogen sulfide donor, thioredoxin inhibitor or nitroxide for use in photodynamic therapy” (UNIVERSITY OF EXETER, priority 2014, dated 2018).
Values joined by “and” are separate entries in the source; they are usually repeats but may differ in a detail not shown here. Equal entries are not always repeated. “Also recorded” adds a separate entry of the source. Where two headings read alike, the source gives them in different places.

Legend:
A431 cells [1] = assay: Photodynamic cell killing in the presence of inhibitors of the thioredoxin antioxidant system or nitroxides (annexin V-FITC/propidium iodide flow cytometry); assay type: cell-based, human; conditions: for cell death: 3 h, irradiation; for potentiating effect on MAL photodynamic cell killing: summary of Examples 2A, 3A
Protocol: After this treatment, the cells were irradiated for 5 min (630 nm, 25 J/cm^2), then washed with PBS and the culture medium was replaced, after which the cells were placed back under 2% O2 and incubated for a further 3 h. Following this final incubation, cell death was analysed by annexin V-FITC and propidium iodide staining in conjunction with flow cytometry.
Cell death analysis by flow cytometry was carried out using the annexin V-FITC/propidium iodide protocol. This protocol allows a quantitative assessment of cell death, particularly specific modes of death, and involves staining the cells with fluorescein isothiocyanate-conjugated annexin A5 (annexin V-FITC) and propidium iodide (PI). Positive staining with annexin V-FITC alone indicates an apoptotic cell; positive staining with PI alone indicates a necrotic cell and dual staining of both annexin V and PI indicates a “late apoptotic” cell.
From each flask being assessed, the old medium was removed and placed into a corresponding individual 15 ml Falcon tube in order to collect any cells that may have detached from the surface. The flask was washed once with 1 ml PBS; also deposited in the Falcon tubes. Trypsin (500 μl) was added to each flask and the flasks were returned to the incubator with their caps loosened. Cell detachment was monitored using an inverted light microscope, until 50% of the cells were detached. The flasks were then lightly tapped to detach the remainder of the cells. Medium (2 ml) was added to each flask in order to neutralise the trypsin present before being removed and dispensed into the Falcon tubes. One more wash with PBS was carried out in order to ensure any cells left in the flasks were collected. The Falcon tubes were then centrifuged at 490 g for 3 min, forming a pellet at the bottom of the tube. The supernatant was discarded, and the cells were re-suspended in 5 ml of PBS, in order to wash them, before being centrifuged again at 490 g for 3 min. The wash stage was carried out once more before re-suspending the cell pellet in 95 μl of ice cold calcium (Ca^2+) buffer (50 mM HEPES, 700 mM NaCl, 12.5 mM CaCl2, pH 7.4) and adding 5 μl 12.5 μg/ml of annexin V-FITC (final concentration, 1.25 μg/ml), under reduced light conditions to prevent bleaching of the FITC. The Falcon tubes were placed on ice and in the dark for 15 min to allow annexin V staining. After 15 min, 860 μl of Ca^2+ buffer (10 mM Hepes adjusted to pH 7.4, 140 mM NaCl and 2.5 mM CaCl2) was added, followed by 40 μl of 1 mg/ml PI in water (final concentration, 0.04 mg/ml) to give a final volume of 1 ml. The samples were then ready to be assessed by flow cytometry.
The following flow cytometry process of sample detection was used. When using annexin V-FITC and PI, the detectors being used were FL1 (λmax=520 nm) and FL3 (λmax=670 nm), respectively, each with their own logarithmic histogram generated by the software. The intensity of the fluorescence detected is measured on a logarithmic scale on the x-axis and the y-axis represents the number of cells detected at a given fluorescence intensity. A plot of FL1/FL3 produces a 4-quadrant graph, where unstained and untreated cells are located in the bottom left quadrant, representing any cells found in the 1st decade of the single plot logarithmic histograms. Single staining with annexin V-FITC and PI are located in the bottom right and top left quadrant, respectively, and dual staining is located in the top right quadrant. These quadrants represent any cells detected above the 1st decade of the logarithmic histograms.

A431 cells [2] = tested on: A431 cells
Protocol: A431 cells were seeded at a density of 1×10^5 cells/ml in 96 well plates and incubated under 2% O2 for 48 h prior to treatment. After 24 h, the culture medium was replaced and the cells were placed back into the incubators under 2% O2. Following this incubation period, the culture medium was then removed and the plates were washed with PBS. The cells were then treated with 1 mM MAL in the absence or presence of one of the compounds of interest and then incubated again at 2% O2 for 3 h. For experiments carried out with SRHDs, this treatment step was carried out for 5 h at 2% O2. After treatment, the cells were washed with PBS, the culture medium was replaced and the cells were placed back under 2% O2 for 3 h. Following this final incubation, cell death was analysed using the resazurin viability assay.
Resazurin (7-hydroxy-3H-phenoxazin-3-one 0-oxide) is a weakly fluorescent blue dye used primarily in oxidation-reduction cell viability assays. Irreversible NADH-dependent reduction by the mitochondria in mammalian cells leads to the production of resorufin, a highly fluorescent product with excitation at 571 nm, emission at 585 nm.
A431 cells were seeded into 96 well plates at a density of 1.5*10^6 cells per ml (200 μl per well, 3*10^5 cells) and incubated for 24 h to adhere. Following incubation, the cells were washed and treated with the compound of interest for the relevant time, and then washed with PBS. […] After a 2 h incubation, the fluorescence of each well was measured (excitation: 571 nm, emission: 585 nm) using a fluorescence plate reader. Data from these experiments was plotted as a percentage of cell viability compared to untreated control cells.

A431 cells [3] = assay: Mitochondrial reactive oxygen species generation during photodynamic irradiation, MitoSOX flow cytometry; assay type: cell-based, human; conditions: 3 hours, irradiated
Protocol: A431 cells were treated concurrently with AP39-C10 (10, 100 or 1000 nM) for 5 hours, MAL (1 mM) for 3 hours and MitoSOX (2.5 μM) for 1 hour, after which they were irradiated for 5 min (630 nm, 25 J/cm^2) and MitoSOX (mito-2-OH-E^+) fluorescence, indicative of mitochondrial oxidant production, was immediately analysed by flow cytometry. Results are set out in FIG. 23.
Mitochondria-targeted dihydroethidium (i.e. MitoSOX) was used to assess the production of mitochondrial reactive oxygen species (ROS) by PpIX photochemical reactions and to determine the effects of AP39-C10 on this process. All of the results are represented as a percentage of the untreated controls (100.0±8.5%). The fluorescence of the photoirradiated cells, which had been pre-treated with MAL, was 193.7±7.3% (p<0.001 c.f. untreated controls).

A431 cells [4] = assay: MAL-induced PpIX accumulation, fluorescence plate reader; assay type: cell-based, human; conditions: for PpIX accumulation, percentage of the MAL alone treatment: FIG. 38; for effect on PpIX fluorescence: 0.01 mM + 1 mM MAL; for increase in PpIX fluorescence: 1 mM + 1 mM MAL
[5] = 1 mM MAL + co-treatment 1 mM (1000 μM)
[6] = 1 mM MAL + nitroxide 1 mM (MitoTEMPO 50 μM) + irradiation, FIG. 13, 34
[7] = MAL 1 mM + co-treatment 1 mM (1000 μM)

SMILES | cell death (A431 cells [1]; [5]) | modes of cell death (A431 cells [1]; [6]) | potentiating effect on MAL photodynamic cell killing (A431 cells [1]) | cell viability, percentage of untreated control (A431 cells [2]; 0.25 mM with 1 mM MAL, 3 hours) [%] | cell viability, percentage of untreated control (A431 cells [2]; 0.5 mM with 1 mM MAL, 3 hours) [%] | cell viability, percentage of untreated control (A431 cells [2]; 1 mM with 1 mM MAL, 3 hours) [%] | cell viability, percentage of untreated control (A431 cells [2]; 2 mM with 1 mM MAL, 3 hours) [%] | cell viability, percentage of untreated control (A431 cells [2]; 5 mM with 1 mM MAL, 3 hours) [%] | cell viability, percentage of untreated control (A431 cells [2]; 10 mM with 1 mM MAL, 3 hours) [%] | MitoSOX fluorescence, percentage of untreated cells (A431 cells [3]; [7]) | PpIX accumulation, percentage of the MAL alone treatment (A431 cells [4]; 10 μM + MAL 1 mM, 3 hours) [%] | effect on PpIX fluorescence (A431 cells [4]; 3 h) | PpIX accumulation, percentage of the MAL alone treatment (A431 cells [4]; 100 μM + MAL 1 mM, 3 hours) [%] | increase in PpIX fluorescence (A431 cells [4]; 3 h) [fold] | PpIX accumulation, percentage of the MAL alone treatment (A431 cells [4]; 1000 μM + MAL 1 mM, 3 hours) [%] | also measured
CC1(C)CC(O)CC(C)(C)N1[O] [TEMPOL, 4-hydroxy-2,2,6,6-tetra methylpiperidine 1-oxyl] | 50.8±6.8% and 69.3±3.1% | an increase in late apoptotic and necrotic cell death; also recorded: a further increase in late apoptosis and necrosis with little effect on apoptotic cell death | more robust potentiating effect | 99.3±4.4 | 102.0±3.6 | 99.8±2.9 | 104.2±3.3 | 116.2±2.7 | 77.8±4.7 | 253.3±6.3% and 316.8±1.6% | 109.0±2.7 | increased PpIX fluorescence slightly, but this was not statistically significant | 141.2±4.2 | ~2 | 209.2±5.1 | modes of cell death (A431 cells [1]; 1 mM MAL + TEMPOL, dependent on concentration + irradiation, FIG. 37): an increase in apoptosis and late apoptosis, with smaller increases in necrosis also observed; cell death (A431 cells [1]; 1 mM MAL + co-treatment 10 μM): 40.5±4.1%; cell death (A431 cells [1]; 1 mM MAL + co-treatment 100 μM): 48.5±7.4%; MitoSOX fluorescence, percentage of untreated cells (A431 cells [3]; MAL 1 mM + co-treatment 10 μM): 99.4±5.44%; MitoSOX fluorescence, percentage of untreated cells (A431 cells [3]; MAL 1 mM + co-treatment 100 μM): 226.5±19.4%; effect on PpIX accumulation (A431 cells [4]; 0.1 mM and 1 mM + 1 mM MAL, 3 h): significantly increased PpIX accumulation further
CC1(C)CCCC(C)(C)N1[O] [TEMPO, 2,2,6,6-tetramethyl-1-piperidinyloxy] | 52.0±8.3% and 46.3±3.6% | an increase in apoptotic and late apoptotic cell death; also recorded: a further increase in late apoptosis and necrosis with little effect on apoptotic cell death | more robust potentiating effect | 97.8±3.4 | 97.5±1.7 | 98.6±6.8 | 97.4±6.2 | 92.9±6.6 | 79.9±8.5 | 418.8±6.3% | 100.3±3.8 | increased PpIX fluorescence slightly, but this was not statistically significant | 127.0±3.3 | ~2 | 159.2±4.1 | cell viability, percentage of untreated control (A431 cells [2]; 10 mM, 24 hours): 64.9±0.1%; cell viability, percentage of untreated control (A431 cells [2]; 50 mM, 24 hours): 8.5±0.2%; increase in PpIX accumulation compared to MAL alone (A431 cells [4]; 50 μM + MAL 1 mM, 3 hours, FIG. 35): 0.0±4.9%; peak response, increase in PpIX accumulation compared to MAL alone (A431 cells [4]; peak at TEMPO 5 mM, MitoTEMPO 100 μM, CP94 100 μM, MAL 1 mM, 3 hours): 138.1±10.5%
